Here are results for two compounds from article PMC12059162 (Scientific Reports, 2025).

The test system of data set [1] is NHDF cells. The experiment in a line: alamarBlue cell viability, healthy cells. To be noted: Homo sapiens, NHDF, 72 h, read-out: IC50 values (μM) 72 hours.
The subject of data set [2] is XIAP. In words: Human Apoptosis Array in PANC-1 cells. To be noted: PANC-1, 0.5 µM, 72 h.
The test system of data set [3] is FADD. In words: Human Apoptosis Array in PANC-1 cells. To be noted: PANC-1, 0.5 µM, 72 h.
Data set [4] concerns phospho-p53 (S392). The experiment in a line: Human Apoptosis Array in PANC-1 cells. To be noted: PANC-1, 0.5 µM, 72 h.
For data set [5], the system named is PANC-1 cells. The experiment in a line: CyQUANT LDH direct cytotoxicity assay. The format is cell-based, human. As to conditions: PANC-1, 25 µM, 72 h. On the procedure: To assess the direct cytotoxicity, the CyQUANT™ LDH Cytotoxicity Assay (Invitrogen Corporation, New York, NY, USA) was used, which is a colourimetric assay. It is based on the detection of lactate dehydrogenase (LDH) activity. When there is damage to the plasma membrane, LDH is released into the cell culture medium, where it can be detected. First, 5 × 10^3 cells/well/100 µL concentration of cells were seeded in a 96-well plate, and after 24 h of incubation, the cells were treated with the molecules at concentrations of 0.5, 10 and 25 µM. After 72 h of treatment, 50 µl of the media from each sample was pipetted to a new 96-well plate. Then, the necessary steps were carried out according to the manufacturer’s instructions. Absorbance was measured for each well using a plate reader (Multiskan MS, Labsystems, Helsinki, Finland) at 492 and 680 nm. The % cytotoxicity was then calculated according to the manufacturer’s instructions. Three parallel samples were analysed in each treatment group.

In data set [6] the test system is DR4. The experiment in a line: qPCR apoptotic gene expression in PANC-1 cells. As to conditions: PANC-1, 25 µM. (Real-time PCR tracks product formation cycle by cycle.)
The test system of data set [7] is survivin. The experiment in a line: Human Apoptosis Array in PANC-1 cells. As to conditions: PANC-1, 0.5 µM, 72 h.
Data set [8] has as its system SMAC. The experiment in a line: Human Apoptosis Array in PANC-1 cells. To be noted: PANC-1, 0.5 µM, 72 h.
In data set [9] the test system is caspase-3/7. In words: CellEvent Caspase-3/7 activity imaging in PANC-1 cells. To be noted: PANC-1, 0.5 µM, 72 h, normalised to DMSO control (n = 1).

One may read the IC50 as the concentration that gives 50% inhibition. As to `O=C1C2=C(CCN(Cc3ccccc3)C2)N2CCN=C2N1Cc1ccc(F)cc1` [TBP-134], the IC50 in data set [1] worked out at 1.55 µM. The XIAP protein level entry in [2] is on record as “decrease”. For the same compound, the FADD protein level result in data set [3] is listed as “decrease”. In addition, the “phospho-p53 (S392) protein level” value in [4] is reported as “decrease”. The cytotoxicity at 25 µM in data set [5] (Homo sapiens, DMSO control 5.3%) is 6.9%. In data set [5], the “Direct cytotoxicity, fold compared to the DMSO control” value was determined as 1.3 fold.
With `O=C1C2=C(CCN(Cc3ccccc3)C2)N2CCN=C2N1Cc1cccc(F)c1` [TBP-135], the “DR4 mRNA expression” value in [6] (3 h) is “significantly upregulated”; in [6] (24 h, normalised to DMSO control), 3.7 fold. Also, the survivin protein level entry in data set [7] is “did not exert detectable change”. In addition, the SMAC protein level entry in data set [8] is on record as “significantly increased”. For the same compound, in data set [9], the “Number of caspase-3/7 active cells, increase” value was determined as 7.8 fold.
